# In publication PMC4261083, “An atypical residue in the pore of Varroa destructor GABA-activated RDL receptors affects picrotoxin block and thymol modulation” (Insect Biochemistry and Molecular Biology, 2014):
# Numbering of substitutions follows the chain as printed.
# Tests used:
# Assay in all cases: Picrotoxin inhibition of GABA responses, two electrode voltage clamp in Xenopus oocytes
# Format in all cases: cell-based
# [1] = biological target: T1, A21′Q mutant Drosophila RDL receptor (Drosophila melanogaster, UniProt P25123, A320Q)
# T1 construct: expressed in transfected cells; host or cells: Xenopus laevis oocytes injected with cRNA
# T1 sequence (P25123 45-606 A320Q): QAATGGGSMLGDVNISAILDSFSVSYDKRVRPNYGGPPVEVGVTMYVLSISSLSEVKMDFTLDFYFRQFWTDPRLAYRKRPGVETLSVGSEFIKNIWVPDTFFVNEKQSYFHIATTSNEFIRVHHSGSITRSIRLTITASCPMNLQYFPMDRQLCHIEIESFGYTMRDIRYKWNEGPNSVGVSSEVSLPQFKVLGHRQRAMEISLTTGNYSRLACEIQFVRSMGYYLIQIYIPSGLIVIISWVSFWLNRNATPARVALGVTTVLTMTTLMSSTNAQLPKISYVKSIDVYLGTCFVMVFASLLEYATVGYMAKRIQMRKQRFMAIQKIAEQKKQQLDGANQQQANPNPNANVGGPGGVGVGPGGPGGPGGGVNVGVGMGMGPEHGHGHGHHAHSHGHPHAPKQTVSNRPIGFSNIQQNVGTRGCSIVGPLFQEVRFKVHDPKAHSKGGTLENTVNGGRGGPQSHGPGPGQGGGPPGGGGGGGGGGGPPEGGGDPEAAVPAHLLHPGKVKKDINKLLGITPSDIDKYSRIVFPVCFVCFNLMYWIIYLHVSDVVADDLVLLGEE
# Method: (§1) X. laevis oocyte-positive females were purchased from NASCO (Fort Atkinson, Wisconsin, USA) and maintained according to standard methods. Harvested stage V-VI Xenopus oocytes were washed in four changes of ND96 (96 mM NaCl, 2 mM KCl, 1 mM MgCl2, 1 mM CaCl2, 5 mM HEPES, pH 7.5), de-folliculated in 1.5 mg ml^−1 collagenase Type 1A for approximately 2 h, washed again in four changes of ND96 and stored in ND96 containing 2.5 mM sodium pyruvate, 0.7 mM theophylline and […].
# (§2) Drosophila RDL subunit cDNA (kindly gifted from N.Millar) was subcloned into pGEMHE for oocyte expression as previously described ([McGonigle and Lummis, 2010], [Millar et al., 1994]). Site directed mutagenesis was performed with the QuikChange mutagenesis kit (Agilent, La Jolla, CA). cRNA was transcribed in vitro from linearised pGEMHE cDNA template using the mMessage mMachine T7 Transcription kit (Ambion, Austin, Texas, USA). Stage V and VI oocytes were injected with 5 ng cRNA, incubated at 18 °C, and currents recorded 18–24 h post-injection.
# (§3) Xenopus oocytes were clamped at −60 mV using an OC-725 amplifier (Warner Instruments, Connecticut, USA), Digidata 1322A and the Strathclyde Electrophysiology Software Package (Department of Physiology and Pharmacology, University of Strathclyde, UK), or using the Roboocyte (MultiChannel Systems). Currents were recorded at 5 kHz and filtered at a frequency of 1 kHz. Micro-electrodes were fabricated from borosilicate glass (GC120TF-10, Harvard Apparatus, Edenbridge, Kent, UK) using a one stage horizontal pull (P-87, Sutter Instrument Company, California, USA) and filled with 3 M KCl. Pipette resistances ranged from 1.0 to 2.0 MΩ. Oocytes were perfused with ND96 at a constant rate of 12 ml min^−1. Drug application was via a simple gravity fed system calibrated to run at the same rate.
# (§4) Analysis and curve fitting was performed using Prism v5 (GraphPad Software, San Diego, California, USA). Concentration-response data for each oocyte was normalised to the maximum current for that oocyte. The mean and S.E.M. for a series of oocytes were fitted to the four parameter logistic equation in Prism.
# [2] = biological target: T2, A20′S mutant Drosophila RDL receptor (Drosophila melanogaster, UniProt P25123, A319S)
# T2 construct: expressed in transfected cells; host or cells: Xenopus laevis oocytes injected with cRNA
# T2 sequence (P25123 45-606 A319S): T1 sequence (P25123 45-606 A320Q) with A275S, Q276A
# Method: as §1, §2, §3, §4
# [3] = biological target: T3, T6′M mutant Drosophila RDL receptor (Drosophila melanogaster, UniProt P25123, T305M)
# T3 construct: expressed in transfected cells; host or cells: Xenopus laevis oocytes injected with cRNA
# T3 sequence (P25123 45-606 T305M): T1 sequence (P25123 45-606 A320Q) with T261M, Q276A
# Method: as §1, §2, §3, §4
substance,measurement,setting,value
picrotoxin,IC50,[1],360 nM
same,Picrotoxin pIC50,[1],6.45 ± 0.25
same,IC50,[2],46 nM
same,Picrotoxin pIC50,[2],7.33 ± 0.13
same,Sensitivity to PTX,[3]; PTX up to 100 μM,insensitive
same,IC50,"[3]; inhibition of GABA responses, read-out: Picrotoxin pIC50 (converted)",> 100 µM
